Measurements published in patent publication US4918074A, “Polyazaheterocycle compounds” (Yoshitomi Pharmaceutical Industries, Ltd., priority 1984, dated 1990).

Legend:
Type in all cases: in vivo
left coronary blood flow = assay: Coronary blood flow after injection into left coronary artery of anesthetized dogs; details: intracoronary injection, anesthetized dog; for Increase in CBF ED50: dose to increase CBF by half of the effect of nifedipine (3 μg); for Decrease in CBF ED-50: dose to decrease CBF by 50% from basal value
Description: (§1) Dogs of either sex were anesthetized with sodium pentobarbital (30 mg/kg i.v.). Heparin (500 U/kg i.v.) was administered before making preparation. Under artificial respiration (18 strokes/min, 20 ml/kg tidal volume), left ventricular dp/dt max, and left coronary blood flow were measured (1). Test compounds were injected into the left coronary artery in a volume of 10 or 30 μl. The effects of compounds on coronary blood flow were observed and presented generally as ED50, a dose required to increase coronary blood flow by a half of the effects of nifedipine (3 μg). Similarly, the effects on dp/dt max were observed and shown as ED30, a dose required to increase dp/dt max by 30% of the efffects of isoproterenol (0.1 μg).

[1] = tested on: left ventricular dp/dt max; assay: Left ventricular dp/dt max after injection into left coronary artery of anesthetized dogs; details: intracoronary injection, anesthetized dog; dose to increase dp/dt max by 30% of effect of isoproterenol (0.1 μg)
Description: as §1

arterial blood pressure = assay: Hypotensive effects in the anesthetized dog; details: Canis lupus familiaris, iv, read-out: Hypotensive effect; for inhibition in vivo at 0.01 mg/kg: 10 μg/kg; for inhibition in vivo at 0.03 mg/kg: 30 μg/kg
Description: (§2) Adult mongrel dogs were anesthetized with sodium pentobarbital (30 mg/kg i.v.). Effects of test compounds on arterial blood pressure, coronary arterial blood flow, vertebral blood flow, renal blood flow, left ventricular dp/dt max (dp/dt max) and urine volume were observed. The compounds were administered intravenously (i.v.) or intraduodenally (i.d.).

[2] = tested on: coronary arterial blood flow; assay: Coronary vasodilating effects in the anesthetized dog; details: Canis lupus familiaris, iv, read-out: Increase in coronary blood flow; for change in vivo at 0.3 mg/kg: 300 μg/kg; for change in vivo at 0.03 mg/kg: 30 μg/kg; for change in vivo at 0.01 mg/kg: 10 μg/kg
Description: as §2

[3] = tested on: left ventricular dp/dt max; assay: Cardiotonic effects in the anesthetized dog; details: Canis lupus familiaris, iv, 300 μg/kg; read-out: Increase in dp/dt max
Description: as §2

Compound | Increase in CBF ED50 (left coronary blood flow) [µg] | Increase in dp/dt max ED30 [1] [µg] | also measured
CC1=C(C(=O)OC(CN2CCCCC2)c2ccccc2)C(c2cccc([N+](=O)[O-])c2)n2ccnc2N1 (stereo not drawn) [(34), 1-Phenyl-2-piperidinoethyl 7-methyl-5-(3-nitrophenyl)-5,8-dihydroimidazo[1,2-a]pyrimidine-6-carboxylate (β-form of diastereomer)] | 10.0 | > 30 | –
CCOC(=O)C1=C(C)Nc2c(Cl)cnn2C1c1ccccc1C(F)(F)F (stereo not shown) [(16), 3-Chloro-6-ethoxycarbonyl-5-methyl-7-(2-trifluoromethylphenyl)-4,7-dihydropyrazolo[1,5-a]pyrimidine] | – | – | inhibition in vivo at 0.3 mg/kg (arterial blood pressure; 300 μg/kg): 29%; change in vivo at 0.3 mg/kg [2]: 113%
CCC(CC)OC(=O)C1=C(C)Nc2ccnn2C1c1ccccc1C(F)(F)F (stereo not shown) [(22), 5-Methyl-6-(3-pentyloxycarbonyl)-7-(2-trifluoromethylphenyl)-4,7-dihydropyrazolo[1,5-a]pyrimidine] | – | – | change in vivo at 0.3 mg/kg [2]: 107%; change in vivo at 0.3 mg/kg [3]: 24%
CC1=C(C(=O)OC(C)C)C(c2cc(F)ccc2F)n2nccc2N1 (stereo not shown) [(32), 7-(2,5-Difluorophenyl)-6-isopropoxycarbonyl-5-methyl-4,7-dihydropyrazolo[1,5-a]pyrimidine] | 8 | 93 | –
CCOC(=O)C1=C(C)Nc2ccnn2C1c1ccccc1Cl (stereo not shown) [(4), 7-(2-Chlorophenyl)-6-ethoxycarbonyl-5-methyl-4,7-dihydropyrazolo[1,5-a]pyrimidine] | – | – | change in vivo at 0.3 mg/kg [2]: 33%
CCOC(=O)C1=C(C)Nc2ccnn2C1c1ccccc1OC(F)F (stereo not shown) [(18), 7-(2-Difluoromethoxyphenyl)-6-ethoxycarbonyl-5-methyl-4,7-dihydropyrazolo[1,5-a]pyrimidine] | – | – | change in vivo at 0.3 mg/kg [2]: 89%; change in vivo at 0.3 mg/kg [3]: 20%
CCOC(=O)C1=C(C)Nc2ccnn2C1c1ccccc1C(F)(F)F (single isomer, unassigned) [(20), 6-Ethoxycarbonyl-5-methyl-7-(2-trifluoromethylphenyl)-4,7-dihydropyrazolo[1,5-a]pyrimidine, optical isomer (-)] | – | – | inhibition in vivo at 0.01 mg/kg (arterial blood pressure): 22%
CC1=C(C(=O)OC(C)C)C(c2ccccc2Cl)n2nccc2N1 (stereo not shown) [(26), 7-(2-Chlorophenyl)-6-isopropoxycarbonyl-5-methyl-4,7-dihydropyrazolo[1,5-a]pyrimidine] | 13 | 133 | change in vivo at 0.03 mg/kg [2]: 33%
COc1ccc(CCOC(=O)C2=C(C)Nc3ccnn3C2c2ccccc2C(F)(F)F)cc1OC (stereo not shown) [(19), 6-[2-(3,4-Dimethoxyphenyl)ethyl]oxycarbonyl-5-methyl-7-(2-trifluoromethylphenyl)-4,7-dihydropyrazolo[1,5-a]pyrimidine] | – | 14 | Decrease in CBF ED-50 (left coronary blood flow): 1.2 µg
CC1=C(C(=O)OC(C)C)C(c2cccc(F)c2Cl)n2nccc2N1 (stereo not shown) [(33), 7-(2-Chloro-3-fluorophenyl)-6-isopropoxycarbonyl-5-methyl-4,7-dihydropyrazolo[1,5-a]pyrimidine] | 1.4 | > 30 | –
CC1=C(C(=O)OC(C)C)C(c2cccc(Cl)c2Cl)n2nccc2N1 (stereo not shown) [(28), 7-(2,3-Dichlorophenyl)-6-isopropoxycarbonyl-5-methyl-4,7-dihydropyrazolo[1,5-a]pyrimidine] | – | – | inhibition in vivo at 0.03 mg/kg (arterial blood pressure): 29%; change in vivo at 0.03 mg/kg [2]: 53%
CC1=C(C(=O)OCC(C)C)C(c2ccccc2C(F)(F)F)n2nccc2N1 (stereo not shown) [(12), 6-Isobutoxycarbonyl-5-methyl-7-(2-trifluoromethylphenyl)-4,7-dihydropyrazolo[1,5-a]pyrimidine] | 1.8 | > 300 | –
CC1=C(C(=O)OC(C)C)C(c2cccc(F)c2F)n2nccc2N1 (stereo not shown) [(31), 7-(2,3-Difluorophenyl)-6-isopropoxycarbonyl-5-methyl-4,7-dihydropyrazolo[1,5-a]pyrimidine] | 1.4 | > 30 | –
CCOC(=O)C1=C(CO)Nc2ccnn2C1c1ccccc1C(F)(F)F (stereo not shown) [(5), 6-Ethoxycarbonyl-5-hydroxymethyl-7-(2-trifluoromethylphenyl)-4,7-dihydropyrazolo[1,5-a]pyrimidine] | – | – | change in vivo at 0.3 mg/kg [2]: 43%; change in vivo at 0.3 mg/kg [3]: 20%
CCOC(=O)C1=C(C)Nc2ccnn2C1c1ccccc1SCc1ccccc1 (stereo not shown) [(17), 7-(2-Benzylthiophenyl)-6-ethoxycarbonyl-5-methyl-4,7-dihydropyrazolo[1,5-a]pyrimidine] | – | 6.7 | Decrease in CBF ED-50 (left coronary blood flow): 1.1 µg
CCOC(=O)C1=C(C)Nc2c(C#N)cnn2C1c1ccccc1C(F)(F)F (stereo not shown) [(14), 3-Cyano-6-ethoxycarbonyl-5-methyl-7-(2-trifluoromethylphenyl)-4,7-dihydropyrazolo[1,5-a]pyrimidine] | 1.6 | > 100 | inhibition in vivo at 0.01 mg/kg (arterial blood pressure): 20%; change in vivo at 0.01 mg/kg [2]: 54%
COCC(OC(=O)C1=C(C)Nc2ccnn2C1c1ccccc1C(F)(F)F)c1ccccc1 (stereo not drawn) [(8), 1-Phenyl-2-methoxyethyl 5-methyl-7-(2-trifluoromethylphenyl)-4,7-dihydropyrazolo[1,5-a]pyrimidine-6-carboxylate (β-form of diastereomer)] | – | – | change in vivo at 0.01 mg/kg [2]: 33%
CC1=C(C(=O)OC(CN2CCCCC2)c2ccccc2)C(c2cccc([N+](=O)[O-])c2)n2nccc2N1 (stereo not drawn) [(2), 1-Phenyl-2-piperidinoethyl 5-methyl-7-(3-nitrophenyl)-4,7-dihydropyrazolo[1,5-a]pyrimidine-6-carboxylate (β-form of diastereomer)] | 1.5 | > 10 | inhibition in vivo at 0.03 mg/kg (arterial blood pressure): 37%
CCOC(=O)C1=C(C)Nc2nnnn2C1c1ccccc1C(F)(F)F (stereo not shown) [(21), 6-Ethoxycarbonyl-5-methyl-7-(2-trifluoromethylphenyl)-4,7-dihydrotetrazolo[1,5-a]pyrimidine] | – | – | change in vivo at 0.3 mg/kg [2]: 63%
CC1=C(C(=O)OC(C)C)C(c2ccccc2F)n2ncc(C#N)c2N1 (stereo not shown) [(29), 3-Cyano-7-(2-fluorophenyl)-6-isopropoxycarbonyl-5-methyl-4,7-dihydropyrazolo[1,5-a]pyrimidine] | 1.0 | > 30 | –
CC1=C(C(=O)OCC2CC2)C(c2ccccc2C(F)(F)F)n2nccc2N1 (stereo not shown) [(6), 6-Cyclopropylmethyloxycarbonyl-5-methyl-7-(2-trifluoromethylphenyl)-4,7-dihydropyrazolo[1,5-a]pyrimidine] | – | – | change in vivo at 0.01 mg/kg [2]: 45%
CCOC(=O)C1=C(CF)Nc2ccnn2C1c1ccccc1C(F)(F)F (stereo not shown) [(24), 6-Ethoxycarbonyl-5-fluoromethyl-7-(2-trifluoromethylphenyl)-4,7-dihydropyrazolo[1,5-a]pyrimidine] | – | 86 | Decrease in CBF ED-50 (left coronary blood flow): > 300 µg
CC1=C(C(=O)OCC2CC2)C(c2ccccc2C(F)(F)F)n2ncc(C#N)c2N1 (stereo not shown) [(7), 3-Cyano-6-cyclopropylmethyloxycarbonyl-5-methyl-7-(2-trifluoromethylphenyl)-4,7-dihydropyrazolo[1,5-a]pyrimidine] | 2.0 | > 30 | inhibition in vivo at 0.01 mg/kg (arterial blood pressure): 20%; change in vivo at 0.01 mg/kg [2]: 52%
CC1=C(C(=O)OC(C)C)C(c2cccc(F)c2F)n2ncc(C#N)c2N1 (stereo not shown) [(35), 3-Cyano-7-(2,3-difluorophenyl)-6-isopropoxycarbonyl-5-methyl-4,7-dihydropyrazolo[1,5-a]pyrimidine] | 0.28 | > 30 | –
